Experiments:
[1] = test system: Npc1^−/− Chinese Hamster Ovary (CHO) cells; test: Lysotracker Green relative lysosomal volume (FACS) in NPC1 null CHO cells; format: cell-based; details: 1 mM
Experimental: (§1) Wild type and NPC1 null Chinese Hamster Ovary (CHO) cells were kindly provided by Chris Wassif (NIH).
(§2) ADLL and enantiomers (ADLL: Molekula #73891210, ALL: Sigma Aldrich #441511, ADL: Sigma #A0876) were administered as dry admix in powdered mouse diet (PicoLab Rodent Diet 20/5053, LabDiet) at a dose of 0.1 g/kg/day for in vivo studies. Treatment groups for in vivo study consisted of at least 5 mice per group. In vitro studies were conducted with each compound dissolved in PBS to generate a 50 mM stock solution and diluted to a 1 mM working concentration in media (DMEM High Glucose-Gibco #10566016).
Lysotracker Green and Propidium Iodide Staining of CHO cells: In vitro FACS experiments were performed in order to measure relative acidic compartment volume staining live cells with LysoTracker™ Green DND-26 (Thermo Fisher-L7526) at 250 nM for 10 minutes in PBS at RT, centrifuged at 1200 rpm for 10 min and cells resuspended in FACS buffer (PBS, 1% BSA, 0.1% NaN3 sodium azide). Cells were stained with propidium iodide (20 nM) (Invitrogen-P3566) immediately prior to analysis on the FACS for dead cell discrimination. FACS analysis was performed on 10,000 recorded cells using FACS Canto (Becton Dickinson, (BD)) with BD software.

[2] = test system: Npc1^−/− Chinese Hamster Ovary (CHO) cells; test: Sphingosine, total GSL and cholesterol content in NPC1 null CHO cells; format: cell-based; details: 1 mM, 72 hours
Experimental: as §1, §2
Sphingoid Base Measurements: Sphingoid bases (sphingosine and sphinganine) were extracted from 100 uL tissue homogenates in 500 uL of chloroform:methanol (1:2v/v) followed by sonication for 10 minutes at room temperature. Subsequently, 1 M 500-uL sodium chloride, 500 uL chloroform, and 3 M 100 uL sodium hydroxide were added to the samples, and vortexed every five minutes for 15 minutes at room temperature. Homogenates were centrifuged (13,000 g for 10 minutes) and the lower organic phase retained. Sphingoid bases were purified from the samples by pre-equilibrating SPA-NH2 columns with 2×1 mL chloroform followed by sample elution with 3×300 ul acetone. The samples were dried under nitrogen. Lipids were resuspended in 50 uL pre-warmed ethanol (37° C.) and 50 uL OPA labelling solution (1 mg OPA/20 uL Ethanol/1 uL 2-mercaptoethanol; dilution 1:2000 in 3% boric acid pH 10.5) was added. Samples were kept at room temperature in the dark for 20 minutes and vortexed every 10 minutes. Samples were buffered with 100 uL methanol: 5 mM Tris pH 7 (9:1) and centrifuged at 5,000 g for 2 minutes. Supernatants (150 uL) were loaded onto a reverse phase HPLC. Chromatography was carried out using a mobile phase of 85% acetonitrile/15% H2O at a flow rate of 1.0 ml/min. The orthophthaldehyde-labelled derivatives were monitored at an excitation wavelength of 340 nm and an emission wavelength of 450 nm. Quantification of trace peak area was carried out using EZChrom Elite software v3.2.1.
Glycosphingolipid measurements: Glycosphingolipids were extracted and measured by NP-HPLC according to published methods. Tissue homogenates in chloroform/methanol (C:M) (1:2 v/v) overnight at 4° C. The mixture was centrifuged (3000 rpm/10 min) and 1 mL chloroform and 1 mL PBS were added to the supernatant and centrifuged (3000 rpm/10 min). The lower phase was dried under N2, resuspended in 50 uL C:M 1:3 v/v and combined with the upper phase. Subsequently, GSLs were recovered using C18 Isolute columns (100 mg) (Biotage) pre-equilibrated with 4×1 mL MeOH and 2×1 mL H2O. Samples were washed 3×1 mL H2O and eluted with 1 mL C:M 98:2, 2×1 mL C:M 1:3, 1 mL MeOH. The column eluate was dried under N2, resuspended in 100 uL C:M 2:1, dried again under N2 and resuspended in ceramide glycanase (CGase) buffer (50 mM sodium acetate pH 5.5, 1 mg/mL sodium taurodeoxycholate). 50 mU CGase was added, and samples incubated at 37° C. overnight. Released oligosaccharides were anthranilic acid (2-AA) labelled and purified by mixing with 1 mL Acetonitrile: H2O 97:3 and added to Discovery DPA-6S columns (SUPELCO, # 52625-U) pre-equilibrated with 1 mL acetonitrile, 2×1 mL H2O, and 2×1 mL acetonitrile. Columns were washed with 2×1 mL Acetonitrile: H2O 95:5 v/v, and eluted in 2×0.75 mL H2O. Samples were loaded 30:70 H2O: MeCN (v/v) for normal phase HPLC. Solvent A was acetonitrile, solvent B was H2O, and solvent C was 100 mM […] (pH 3.85) in H2O. Separation was carried out at 30° C. using Waters Alliance 2695 separation module, excitation 360, emission 425 using Waters 2475 Fluorescence detector.
Cholesterol measurements: Cholesterol was measured with the Amplex Red kit (Molecular Probes) according to the manufacturer's instructions. Briefly, cell and tissue homogenates in 100 uL mQ water were Folch extracted and dried down under nitrogen. […]

Npc1^−/− mice = test: Cerebellar immunohistochemistry (Purkinje cells, CD68 microglia) in Npc1−/− mice; format: in vivo, mouse; details: for reduction of frequency of CD68 positive activated microglia: cerebellum; for reduction of frequency of CD68 positive activated microglia / Purkinje cell survival in any cerebellar lobules: compared to Npc1−/− UT
Experimental: as §2
Biochemical and immunohistochemical analyses. Mice were saline perfused under terminal anaesthesia. Tissues for biochemical analysis were snap-frozen on ice-cold isopentane. For immunofluorescent staining, tissues were perfused with 4% PFA followed by PBS and kept in 4% PFA for 24h and stored in PBS containing 20% sucrose longer term. Brains were cut parasagitally (20 micron sections) and stored in 30% ethylene glycol, 30% glycerol 0.1 M sodium phosphate buffer (pH 7.4) at −20° C. Biochemical analysis was performed on water-homogenised tissues (50 mg/ml) and protein content was determined using a BCA protein assay (Thermo Fisher #23227) according to the manufacturer's instructions.
Immunohistochemistry: Free-floating brain sections in glycerol/ethylene were rinsed 3 times with PBS and blocked with 2% goat serum in 0.3% PBS Triton at room temperature. Sections were stained with primary antibodies; rabbit Calbindin (1:2000) and rat CD68 (1:500) in 2% goat serum in 0.3% PBS for 16 hours at 4° C., followed by washing with 0.3% PBS Triton, then 3 times with PBS. Secondary antibody staining (Alexa Fluor 597 Goat anti rabbit Far Red, Alexa Fluor 488 Goat anti rat) was conducted at room temperature for 2 hours. Samples were washed once with 0.3% PBS Triton, 3 times with PBS and manually mounted on slides. Slides left on the bench overnight to dry the sections followed by application of ProLong Gold (Invitrogen, #P36930).
Image Acquisition and Quantification: Brain sections and CHO cells imaging was performed with a Leica-SP8 confocal microscope in tile imaging mode. Western blot data acquisition was conducted with LiCOR Odyssey Infrared Imaging system model no 9120. Mean fluorescence values, cerebellum diameters and areas, cell quantifications were calculated with Fuji Version 1.0 software.

[3] = 59 days of age, relative to untreated Npc1−/− littermates

| SMILES | reduction of relative lysosomal volume ([1]; 24 h) [%] | reduction of relative lysosomal volume ([1]; 72 h) [%] | reduction of cholesterol content [2] [%] | reduction of sphingosine levels [2] [%] | reduction of total GSL levels [2] [%] | more Purkinje cells in lobule III (Npc1^−/− mice; [3]) [%] | more Purkinje cells in lobules I and II (Npc1^−/− mice; [3]) [%] | reduction of frequency of CD68 positive activated microglia (Npc1^−/− mice; 59 days of age) | Purkinje cell survival in any cerebellar lobules (Npc1^−/− mice; 59 days of age) | long term neuroprotective effects (Npc1^−/− mice; Npc1−/− mice) |
| --- | --- | --- | --- | --- | --- | --- | --- | --- | --- | --- |
| CC(=O)NC(CC(C)C)C(=O)O (racemic) [ADLL, N-acetyl-DL-leucine] | 16.9 | 24 | 18 | 22 | 26 | 402 | 133 | did not have a significant impact | – | – |
| CC(=O)N[C@H](CC(C)C)C(=O)O [ADL, N-acetyl-D-leucine] | – | 22.3 | 14 | 14 | 22 | – | – | did not have a significant impact | did not significantly improve | did not mediate any long term, neuroprotective effects |
| CC(=O)N[C@@H](CC(C)C)C(=O)O [ALL, N-acetyl-L-leucine] | 16 | 22.8 | 13 | 29 | 25 | – | – | 20% | did not significantly improve | – |

— US12697316B2, “Combination therapy with acetyl-leucine and miglustat” (INTRABIO LTD., priority 2019, dated 2026)
